Source: US9597407B2, “Targeted antimicrobial moieties” (C3 Jian, Inc., priority 2009, dated 2017)
“Also recorded” adds a separate entry of the source.

Each substance was assayed on bacteria (assay: Binding of targeting peptides to microorganisms (Table 3)). Conditions: microorganism bound by the targeting peptide; binding in aqueous buffers chosen by peptide solubility, preferably 1x PBS.
In the case of “PF-150 (EIQAKGTG; Peptide with targeting and/or antimicrobial activity)”, the “Target(s)” value is reported as “S. epidermidis and MRSA”.
With “PF-159 (TMAFVEKAQLRVPVGDDLPV; Peptide with targeting and/or antimicrobial activity)” the “Target(s)” value was “S. epidermidis”.
For “PF-161 (RGRALASTATTRPARRRR; Peptide with targeting and/or antimicrobial activity)”, the “Target(s)” value was “S. epidermidis; also recorded: M. luteus; also recorded: E. coli; also recorded: C. jejuni”.

Same assay, conditions: microorganism the targeting peptide binds; binding in aqueous buffers that varied with peptide solubility, preferably 1x PBS
For “1T-192 (ILVLLALQVELDSKFQY; Peptide with targeting and/or antimicrobial activity) [Peptide 1T-192]”, the “Target(s)” value was “S. sanguinis”.
In the case of “1T-222 (RIEASLISAIMFSMFNAIVKFLQK; Peptide with targeting and/or antimicrobial activity) [Peptide 1T-222]”, the “Target(s)” value is reported as “F. nucleatum; also recorded: S. sanguinis”.
For “1T-268 (PITPKKEKCGLGTYAPKNPVFSKSRV; Peptide with targeting and/or antimicrobial activity) [Peptide 1T-268]”, the “Target(s)” value was “F. nucleatum; also recorded: S. mutans; also recorded: S. oralis; also recorded: S. sanguinis”.
“1T-267 (RIKEERKNRSYKFFIWRLFDEKTGFI; Peptide with targeting and/or antimicrobial activity) [Peptide 1T-267]” was tested, and the “Target(s)” value was “A. naeslundii; also recorded: F. nucleatum; also recorded: P. gingivalis; also recorded: T. denticola; also recorded: S. mitis; also recorded: S. mutans; also recorded: S. oralis; also recorded: S. sanguinis”.

Same assay, conditions: peptide binding in aqueous buffers that varied depending on peptide solubility; preferably 1x PBS
With “PF-400 (VIAWKFRNKFENSGV; Peptide with targeting and/or antimicrobial activity)” the “Target(s) (microorganisms bound by the targeting peptide)” value was “S. epidermidis; also recorded: E. coli; also recorded: S. pneumoniae; also recorded: E. faecalis; also recorded: C. jeikeium”.
“PF-C273 (KNMLKRRMKQKRLFDEEDRLRVLSKYTKSYY; Peptide with targeting and/or antimicrobial activity)” was tested, and the “Target(s) (microorganism bound by the targeting peptide)” value was “A. naeslundii; also recorded: P. gingivalis; also recorded: S. mutans; also recorded: T. denticola”.
With “PF-733 (VISRQMGSEAVLELFIIM; Peptide with targeting and/or antimicrobial activity)” the “Target(s) (microorganism bound by the targeting peptide)” value was “S. mutans; also recorded: E. coli”.
“PF-435 (MSRWDGHSDKGEAPAGKPPMHGFGLNGENK; Peptide with targeting and/or antimicrobial activity)” was tested, and the “Target(s) (microorganisms bound by the targeting peptide)” value was “C. jeikeium”.
With “PF-709 (NKKHSPMD; Peptide with targeting and/or antimicrobial activity)” the “Target(s) (microorganism bound by the targeting peptide)” value was “S. mutans”.
In the case of “PF-463 (MVILVFSLIFIFTDNYLVYQSKSIKEDVMI; Peptide with targeting and/or antimicrobial activity)”, the “Target(s) (microorganisms bound by the targeting peptide)” value is reported as “S. epidermidis; also recorded: E. coli; also recorded: P. aeruginosa; also recorded: C. albicans; also recorded: S. pneumoniae; also recorded: E. faecalis; also recorded: M. smegmatis”.

Same assay, conditions: peptide binding in aqueous buffers varied by peptide solubility; preferably 1x PBS
For “1T-91 (TSVRPGAAGAAVPAGAAGAAGAGWRWP; Peptide with targeting and/or antimicrobial activity) [Peptide 1T-91]”, the “Target(s) (microorganism bound by the targeting peptide)” value was “S. mitis; also recorded: S. mutans; also recorded: S. oralis; also recorded: S. sanguinis”.
With “1T-15 (DVILRVEAQ; Peptide with targeting and/or antimicrobial activity) [Peptide 1T-15]” the “Target(s) (microorganism bound by the targeting peptide)” value was “S. mutans”.
In the case of “1T-19 (PGAFRNPQMPRG; Peptide with targeting and/or antimicrobial activity) [Peptide 1T-19]”, the “Target(s) (microorganism bound by the targeting peptide)” value is reported as “S. aureus; also recorded: S. epidermidis; also recorded: P. aeruginosa”.
For “1T-39 (FGFCVWMYQLLAGPPGPPA; Peptide with targeting and/or antimicrobial activity) [Peptide 1T-39]”, the “Target(s) (microorganism bound by the targeting peptide)” value was “S. mutans; also recorded: P. aeruginosa”.
